In publication PMC6541264, “Molecular mechanisms involved in drug-induced liver injury caused by urate-lowering Chinese herbs: A network pharmacology study and biology experiments” (PLoS ONE, 2019):

What was measured:
Format in all cases: cell-based, human
[1] = MTT assay, cell viability of L-02 cells; details: human, L-02 (L02) normal hepatic cells, L-02, MTT, 24 h, read-out: cells viabilityrate
Method: (§1) The normal hepatic cell (L02) cell lines were obtained from the National Infrastructure of Cell Line Resources (Chinese Academy of Medical Sciences, Beijing, China), and maintained in Dulbecco’s modified Eagle’s medium (DMEM, 10-013-CVR) supplemented with 10% fetal bovine serum (FBS, Hyclone), 1% penicillin and streptomycin (PS, 100 IU/ml penicillin, 100 μg/ml streptomycin, Mediatech, 30-002-CI). All cells were incubated in a humidified atmosphere at 37°C with 5% CO2.
(§2) L-02 cells were trypsinized by 0.25% trypsin after reaching the confluence of 70–80% and plated in 96-well plates at the density of 1.6 × 10^3 […]. And L-02 cells were cultured for 24 hours in vitro before exposure to varying concentrations of different representative compounds with liver injury for further incubating in another 24 hours. Then, 20 μl of 0.25 mg/ml3-(4,5-dimethylthiazol-2-yl)-2,5-diphenyltetrazolium bromide (MTT)-tetrazolium salts (Sigma-Aldrich Corp., St. Louis, MO, USA) in PBS was added to each hole in 96-well plates. After 4 hours of incubation, the formazan crystals were dissolved by 150μl Dimethyl Sulphoxide (DMSO), and shocked to dissolve thoroughly, then the cell viability was measured by MTT method at 570 nm. All experiments were repeated in triplicate independently.

[2] = system: L-02 cells; experiment: MTT assay, cell viability of L-02 cells; details: dose of 60–90 μmol/L
Method: as §1, §2

[3] = system: L-02 cells; experiment: Biochemical indicators of hepatotoxicity (ALT, AST, LDH, ALP activity) of L-02 cells, without and with p38 inhibitor SB203580
Method: as §1
To determine how potential liver injury-compounds affected biochemical indicators of L-02 cells, we investigated the activities of AST, ALT, LDH and ALP in cell migration capacity under the different representative compounds conditions (representative compounds group), the inhibitor conditions (inhibitor group), and the negative control. For these experiments, three replicates were made for each concentration of the different representative compounds with liver injury, and each group was established three holes and cultured in 6 times repeatedly. […] Subsequently, the supernatant extraction of L02 cells was collected and centrifuged to detect the activities of AST, ALT, LDH, and ALP by chromatometry method.
To further and fully elucidating the mechanism of the liver injury caused by the representative compounds from urate-lowering Chinese herbs, we chose the p38α inhibitor, SB203580 to verify our findings. […] The specific composition information was shown in S2 Table. […] The Specific specific composition information is was shown in S4 Table.

[4] = system: p38α; experiment: Western blot, expression of p-p38α/p38α in L-02 cells, without and with inhibitor SB203580
Source text: After the examination of biochemical indicators for hepatotoxicity in the cell, the expression of crucial liver injury protein in L02 cell lines among different groups was compared by Western blot analysis. Briefly, the proteins from different groups were harvested and lysed using lysis buffer (Sigma-Aldrich) containing a proteinase inhibitor cocktail (Sigma-Aldrich), the equal amounts of protein were separated by electrophoresis on a pre-cast 10% SDS-polyacrylamide gel (Bio-Rad, Hercules, CA) and transferred to polyvinylidene difluoride membranes (Millipore, Bedford, MA). Next, the membrane was blocked in TBST-T containing 5% skim milk for 2 h at room temperature and probed with anti-beta-catenin, and incubated overnight with the indicated primary antibody, followed by incubation with the secondary antibodies at room temperature for another 2 h. Finally, all the immune blots were visualized by enhanced chemiluminescence (Pierce Biotechnology, Inc., Rockford, IL, USA) and western blots were performed at least three times.
According to the results of network pharmacology, we examined the expression levels of p38α. […] The Specific specific composition information is was shown in S3 Table. […] However, the mechanism of saikosaponin D causing liver injury still remained unclear.
To further and fully elucidating the mechanism of the liver injury caused by the representative compounds from urate-lowering Chinese herbs, we chose the p38α inhibitor, SB203580 to verify our findings. Seemingly, the ALT, AST, ALP, and LDH activities of each group decreased to varying degrees under the influence of inhibitor. The specific composition information was shown in S2 Table. […] The Specific specific composition information is was shown in S4 Table.

[5] = Table 5, L-02 supernatant, 24 h, 40μmol/L
[6] = Table 5, L-02 supernatant, 24 h, 60μmol/L
[7] = Table 5, L-02 supernatant, 24 h, 80μmol/L

For COc1ccc2cc1Oc1ccc(cc1)C[C@H]1c3cc(c(OC)cc3CCN1C)Oc1c(OC)c(OC)cc3c1[C@H](C2)N(C)CC3 [Tetrandrine], the viability at 24 h, 40 μmol/L ([1]; 40 μmol/L) was 101 ± 9.72%, the viability at 24 h, 60 μmol/L ([1]; 60 μmol/L) was 91.8 ± 4.63% and the viability at 24 h, 80 μmol/L ([1]; 80 μmol/L) was 83.3 ± 5.22%. For the same compound, the “cell survival rate, in words” value [2] was “lower cell survival rate”, the ALT ([3]; S2 Table, L-02, 40μmol/L, no inhibitor) was 16.55± 0.71 U/L and the AST ([3]; S2 Table, L-02, 60μmol/L, no inhibitor) was 5.64± 0.56 U/L. The ALP [3, 5] was 16.55±0.71 ^*^Δ King's unit /100ml, the ALT [3, 5] was 4.36±0.35 U/L and the AST [3, 5] was 713.48±49.44 ^*^Δ U/L. The LDH [3, 5] was 0.79±0.08 U/L, the ALT [3, 6] was 5.01±1.20 U/L and the AST [3, 6] was 705.81±98.97^Δ U/L. For the same compound, the LDH [3, 6] was 0.82±0.16 U/L, the ALP [3, 7] was 17.45±0.35 ^**^ΔΔ King's unit /100ml and the ALT [3, 7] was 4.84±0.86 U/L. For the same compound, the AST [3, 7] was 736.08±77.41 ^*^Δ U/L, the LDH [3, 7] was 0.93±0.07 U/L and the p-p38α/p38α ([4]; S3 Table, L-02, 24 hours of incubation, 40μmol/L) was 1.03±0.29. The p-p38α/p38α ([4]; S3 Table, L-02, 24 hours of incubation, 60μmol/L) was 0.98±0.14, the p-p38α/p38α ([4]; S3 Table, L-02, 24 hours of incubation, 80μmol/L) was 1.26±0.52 and the p-p38α/p38α ([4]; S4 Table, L-02, 24 hours, 40μmol/L+inhibitor (SB203580)) was 0.81±0.03. For the same compound, the p-p38α/p38α ([4]; S4 Table, L-02, 24 hours, 40μmol/L, no inhibitor) was 0.97±0.03, the p-p38α/p38α ([4]; S4 Table, L-02, 24 hours, 60μmol/L+inhibitor (SB203580)) was 0.98±0.17 and the p-p38α/p38α ([4]; S4 Table, L-02, 24 hours, 60μmol/L, no inhibitor) was 0.79±0.24. It also gave a p-p38α/p38α ([4]; S4 Table, L-02, 24 hours, 80μmol/L+inhibitor (SB203580)) of 1.28±0.26 and a p-p38α/p38α ([4]; S4 Table, L-02, 24 hours, 80μmol/L, no inhibitor) of 1.17±0.07.
